From patent US7892492B2, “Flow-through apparatus for microscopic investigation of dissolution of pharmaceutical solids” (University of Connecticut, priority 2006, dated 2011)

Tests used:
Type in all cases: physicochemical
[1] = Rotating disk dissolution in HCl
Description: Dissolution data are often collected in terms of amount dissolved curve vs. time. This is the case for rotating disk experiments due to the nature of the apparatus, i.e., batch operation. In rotating disk experiments, a change in solid form (such as salt form, polymorph form, amorphous to crystalline form) is indicated by a change in slope in a cumulative dissolution curve. A change of slope signifies a change in dissolution rate. […] In FIG. 20, the change in slope occurs at approximately 45 minutes, although it is difficult to determine an exact time due to some curvature in the plot.
These phenomena can be better understood by plotting a dissolution rate vs. time curve. For the rotating disk, data are still collected in a cumulative manner; however, further data treatment makes a change in slope easier to recognize. From a cumulative amount dissolved curve the slope between each set of adjacent points is taken and plotted against the midpoint of time. Using this method, it is easier to point out the time when the dissolution rate changes and determine the terminal dissolution rate. The resultant plot is a dissolution rate vs. time curve.

[2] = Rotating disk (Wood's die) dissolution, 10−4N NaOH; conditions: for Dissolution Rate: rotating disk, 900 ml 10−4N NaOH, room temperature
Protocol: In order to test an apparatus associated with the present disclosure against a rotating disk apparatus, the dissolution rate of Triamterene free base was determined in dilute NaOH. The dissolution media was chosen to be 10−4N NaOH, since at alkaline pH, the Triamterene free base is not ionized. This condition makes theoretical comparisons of flux easier since it is not necessary to account for multiple species (ionized and unionized species) and Levich's mathematical solution for dissolution from a rotating disk transport is valid. Rotating disk dissolution was run in a standard dissolution apparatus at 25, 80 and 200 rpm. The dissolution medium was 900 ml of 10−4 N NaOH at room temperature (since the flow cell has no temperature control at this time). The Wood's die apparatus has an exposed drug surface area of 0.5 cm^2. Approximately 125 mg of Triamterene free base was compressed into the die using a Carver Press. The compression conditions were 5000 lbs of force for 30 seconds. Triamterene was detected via fluorescence with excitation at 370 nm and emission at 432 nm. The rotating disk results are shown in FIG. 29 for each rotation speed. As expected, an increase in rotation speed leads to an increase in dissolution rate. The dissolution rate for the entire experiment is represented by the slope of this line. Because this is the Triamterene free base dissolving in alkaline conditions, it is not expected to undergo a conversion, thus a constant dissolution rate vs. time curve is expected. However, interesting results can be seen in FIG. 30 showing dissolution rate vs. time data. […] The data from FIGS. 32 and 33 were used to estimate the dissolution rate at each volumetric flow rate for FIG. 34.

[3] = Flow-through apparatus dissolution in HCl with stereomicroscope imaging; conditions: flow cell
Protocol: A flow-through apparatus associated with the present disclosure was tested using a model compound. Triamterene free base was chosen as the model compound as this is readily available and there is literature available on its various salt forms. An advantage of an apparatus associated with the present disclosure is that the user is able to observe the solid during dissolution. The following experimental results are preliminary data for a flow-through apparatus experiment (before the compression step was controlled). Approximately 20 mg of a sample drug was compressed in an insert for dissolution. Flow-through experiments were performed using 0.1N or 0.001N HCl as the dissolution medium pumped through a dissolution channel at 5 ml/min and 25 ml/min. Triamterene concentration in the effluent was measured by UV analysis at 370 nm. […] With the flow cell mounted in a jig so that it is tilted slightly, it is possible to capture images that show the face of the drug compact that is exposed to the fluid as well as the “control” dry surface face adjacent to the glass plate. Flow is from left to right in the following figures of Triamterene Free Base Dissolution in 0.1 N HCl at 25 ml/min: FIG. 23 at t=0; FIG. 24 at t=5 min; FIG. 25 at t=10 min; FIG. 26 at t=15 min; FIG. 27 at t=20 min; FIG. 28 at 25 minutes.

[4] = Dissolution in flow-through apparatus (flow cell), 10−4N NaOH; conditions: for Dissolution Rate: 10−4N NaOH, room temperature
Protocol: In order to test an apparatus associated with the present disclosure against a rotating disk apparatus, the dissolution rate of Triamterene free base was determined in dilute NaOH. The dissolution media was chosen to be 10−4N NaOH, since at alkaline pH, the Triamterene free base is not ionized. This condition makes theoretical comparisons of flux easier since it is not necessary to account for multiple species (ionized and unionized species) and Levich's mathematical solution for dissolution from a rotating disk transport is valid. Dissolution rate was also studied in an exemplary flow-through apparatus associated with the present disclosure. The dissolution medium (10−4N NaOH) was run continuously at 0.5, 1.5, 7.0, 20 mL/min. Triamterene free base was compressed into the insert by a mini-vise. Since a pressure reading is not possible on this vise, the mass of the drug in the insert was recorded and the porosity was calculated by using the dimensions of the insert, thickness of the drug compact and true density of the Triamterene free base as measured by pycnometry. Porosity of 10% or less was considered acceptable. Triamterene was detected via fluorescence with excitation at 370 nm and emission at 432 nm. The rotating disk results are shown in FIG. 29 for each rotation speed. As expected, an increase in rotation speed leads to an increase in dissolution rate. The dissolution rate for the entire experiment is represented by the slope of this line. Because this is the Triamterene free base dissolving in alkaline conditions, it is not expected to undergo a conversion, thus a constant dissolution rate vs. time curve is expected. However, interesting results can be seen in FIG. 30 showing dissolution rate vs. time data. […] The data from FIGS. 32 and 33 were used to estimate the dissolution rate at each volumetric flow rate for FIG. 34.

Row | Comparison of dissolution rate between HCl concentrations ([1]; rotating disk, 0.1, 0.01 or 0.001N HCl) | Rank order of dissolution rate with pH ([1]; rotating disk, chloride ion concentration normalized to 0.1N HCl) [N>0.01N>0.001N HCl] | Dissolution Rate ([2]; 25 rpm) [ug/cm^2min] | Dissolution Rate ([2]; 80 rpm) [ug/cm^2min] | Dissolution Rate ([2]; 200 rpm) [ug/cm^2min] | Time of change in slope of cumulative amount dissolved vs. time curve ([1]; rotating disk, 0.001N HCl, 50 rpm, preliminary data (FIG. 20)) | Observable changes of the solid in stereomicroscope images ([3]; 0.001 HCl, 5 mL/min) | Time after which the dissolution rate is relatively constant ([3]; 0.001 HCl, 5 mL/min (FIG. 22)) [min] | Time until which the new solid grows before it is washed away with the fluid ([3]; 0.1N HCl, 25 ml/min) [min] | Course of dissolution rate with time ([4]; 0.5-20 mL/min, 10−4N NaOH (FIG. 33)) | Dissolution Rate ([4]; flow rate 0.5 ml/min) [ug/cm^2min] | Dissolution Rate ([4]; flow rate 1.5 ml/min) [ug/cm^2min] | Dissolution Rate ([4]; flow rate 7.0 ml/min) [ug/cm^2min] | Dissolution Rate ([4]; flow rate 20 ml/min) [ug/cm^2min] | Molecule | Course of dissolution rate with time ([2]; rotating disk, 25, 80 and 200 rpm, 10−4N NaOH (FIG. 30)) | Salt transformation observed during dissolution ([3]; 0.1N HCl, 25 ml/min) | Observation of drug compact during dissolution ([3]; 0.1N HCl, 25 ml/min, after five minutes (FIG. 24))
1 | highest dissolution rate in 0.01N HCl | 0.1 |  |  |  |  |  |  |  |  |  |  |  |  | Triamterene citrate |  |  | 
2 |  |  | 0.8 | 1.5 | 2.3 | approximately 45 minutes | did not reveal any observable changes | 25 | 15 | decrease of dissolution rate with time | 1.1 | 1.5 | 2.7 | 4.7 | Nc1nc(N)c2nc(-c3ccccc3)c(N)nc2n1 [Triamterene free base, Triamterene] | initial decrease in the dissolution rate with time | significant hydrochloride salt growth on the drug surface | nucleation and significant crystal growth has occurred
